{"source": "patent US20220096706A1", "about": "“ELECTROSPUN NANOFIBER-BASED DRESSINGS AND METHODS OF MANUFACTURE AND USE THEREOF” (BOARD OF REGENTS OF THE UNIVERSITY OF NEBRASKA, priority 2019, published 2022)", "key": {"[1]": {"test_system": "Staphylococcus aureus USA300", "settings": "cited from earlier work"}, "[2]": {"test_system": "S. aureus USA300", "settings": "compared to either LL-37 or GF-17; cited from earlier work"}, "[3]": {"settings": "in biofilm; Lawrence, et al. (1994); cited from earlier work"}, "[4]": {"test_system": "resistant ESKAPE pathogens, including persisters and biofilms", "settings": "cited from earlier work"}, "[5]": {"test_system": "MRSA USA300 biofilm", "format": "in vivo, type II diabetic mice", "settings": "24 hours MRSA inoculation and subsequent 24 hour mupirocin 2% treatment", "procedure": "Briefly, MRSA was grown in TSB overnight. Subsequently, 100 μL bacterial strain was pipetted into 4 mL fresh TSB medium for 3 hours followed by PBS washing for three times. Then, the bacterial concentration was adjusted to 1×10^8 CFU/mL and stored in the ice box before use. One hundred female 005314-TALLYHO/JngJ diabetic defective mice (10-11 weeks, 30-35 g, GLU>200 mg/dL) fed with standard pellet diet and water were used.\nThe biofilm was established in 005314-TALLYHO/JngJ mice excisional wounds. Two 6 mm-diameter full thickness wounds were created on the back of a mouse using a disposable biopsy punch (Integra Miltex®, Kai Medical, USA) and fixed with a wound splint (Grace Bio-labs, Inc, Bend, Oreg.). The wounds were all inoculated with 10 μL of 1×10^8 CFU/mL MRSA instantly after surgery, and mupirocin 2% was applied to treat the wounds at day 2 (24 hours after surgery). Then, the surrounding and wound tissue was collected using an 8 mm-diameter punch and the biofilm was confirmed by CFU count, LIVE/DEAD® staining and SEM observation.\nThe biofilm formation was performed as above-mentioned. The mice were then divided into control groups and peptide groups. Control groups' wounds were treated with 6-mm diameter F127-PCL core-shell nanofiber discs alone. […] All the dishes were inoculated in a 37° C. microbial incubator for 18 hours and the CFU numbers were counted. […]"}, "[6]": {"test_system": "MRSA", "assay": "Antibiotic agar inhibition (MRSA inhibition zone) test", "format": "cell-based, Staphylococcus aureus", "settings": "FIG. 6E"}, "[7]": {"test_system": "MRSA biofilms", "assay": "In vivo antibiofilm efficacy test, MRSA biofilm wounds (B6.BKS(D)-Leprdb/J mice)", "design": "species or system type II diabetic mice", "settings": "24 hours and 48 hours inoculation followed by 24 hour treatment of 2% mupirocin ointment", "method": "A biofilm-containing chronic wound model was established. Briefly, MRSA was grown in TSB overnight. Subsequently, 100 μL of bacterial strain was pipetted into 4 mL of fresh TSB medium and cultivated for 3 hours followed by PBS washing for three times. Then, the bacterial concentration was adjusted to 1×10^8 CFU/mL and stored in the ice box before use. Nine […] 000697-B6.BKS(D)-Leprdb/J diabetic defective mice (male, 10-11 weeks, 50-55 g, GLU>200 mg/dL) fed with standard pellet diet and water were used.\nThe biofilm was established in 000697-B6.BKS(D)-Leprdb/J mice excisional wounds. […]\nAfter the biofilm formation was performed, F127/17BIPHE2-PCL-S core-shell nanofiber membranes or Janus-type dressings were put on the wound, different dressing changes strategies were applied to treat the biofilm formed wound. […] All the dishes were inoculated in a 37° C. microbial incubator for 18 hours, and the CFU numbers were counted.\nTo further evaluate the anti-biofilm efficacy, MRSA biofilms were established in type II diabetic mice wounds (FIG. 21). […] The CFU of MRSA biofilms (10^10-10^12 CFU/g) formed after 24 hours and 48 hours of bacteria inoculation and removal of planktonic bacteria was quantified (FIG. 21B). […]"}}, "note": "Non-standard residues stand in square brackets, D forms with d. No end group written: not given here. Bip = N[C@@H](Cc1ccc(-c2ccccc2)cc1)C(=O)O", "data": [{"compound": "LL-37", "values": [{"measurement": "inhibition of bacterial attachment / disruption of preformed biofilms", "setting": "[1]; Mishra, et al. (2016)", "value": "unable to inhibit bacterial attachment or disrupt preformed biofilms"}, {"measurement": "inhibition of biofilm growth of Staphylococcus aureus USA300", "setting": "[1]; in vitro, Haisma, et al. (2014)", "value": "only at a low concentration"}]}, {"compound": "GX1KRLVQRLKDX2LRNLV, wherein X1 and X2 are biphenylalanines (SEQ ID NO: 2) (G[Bip]KRLVQRLKD[Bip]LRNLV) [17BIPHE2, molecularly engineered human cathelicidin LL-37 peptide]", "values": [{"measurement": "protection of wax moths from S. aureus USA300 infection", "setting": "[2]", "value": "optimized protection"}]}, {"compound": "RRRWWWWV; SEQ ID NO: 7 (Antimicrobial peptide) [W379, peptide with merely eight amino acids]", "values": [{"measurement": "diffusion coefficient of peptides (D)", "setting": "[3]", "value": "3.1×10^−12 m^2/s"}, {"measurement": "antimicrobial activity against resistant ESKAPE pathogens", "setting": "[4]", "value": "antimicrobial activity"}]}, {"compound": "C/C(=C\\C(=O)OCCCCCCCCC(=O)O)C[C@@H]1OC[C@H](C[C@@H]2O[C@H]2[C@@H](C)[C@H](C)O)[C@@H](O)[C@H]1O", "note": "[mupirocin 2%, mupirocin]", "values": [{"measurement": "bacteria resided on surgical site and surrounding tissues", "setting": "[5]", "value": "10^10 CFU/g"}, {"measurement": "killing of planktonic bacteria in antibiotic agar inhibition test", "setting": "[6]", "value": "kill the planktonic bacteria very effectively"}, {"measurement": "CFU of MRSA biofilms", "setting": "[7]", "value": "10^10-10^12 CFU/g"}]}]}
